“Also recorded” adds a separate entry of the source.
What was measured:
SARS‐CoV 3CL protease = SARS‐CoV 3CL protease (Severe acute respiratory syndrome coronavirus, UniProt P0C6X7); test: biochemical; type: biochemical
SARS‐CoV [1] = type: cell-based
SARS‐CoV [2] = type: cell-based; remark: listed apart in the source

SMILES	inhibition pattern with respect to the substrate (SARS‐CoV 3CL protease)	inhibition of 3CL protease activity (SARS‐CoV 3CL protease)	Ki (SARS‐CoV 3CL protease)	also measured
[O-]n1ccccc1=S.[O-]n1ccccc1=S.[Zn+2] [1‐Hydroxypyridine‐2‐thione zinc]	competitive	–	–	–
[Co+2] [Co^2+]	–	did not inhibit	–	–
[Cu+2] [Cu^2+]	–	effective	4900 ± 1300 nM	–
Oc1c(Cl)cc(Cl)c(Cl)c1Cc1c(O)c(Cl)cc(Cl)c1Cl [Hexachlorophene]	competitive	–	13700 ± 400 nM	inhibition of cytopathic effect (SARS‐CoV [1]): strong inhibition; cytotoxicity (Vero E6 cells): No cytotoxicity; cells still alive (Vero E6 cells; African green monkey): approximately 50%
[Hg+2] [Hg^2+]	–	effective	–	–
[Mg+2] [Mg^2+]	–	did not inhibit	–	–
[Mn+2] [Mn^2+]	–	did not inhibit	–	–
[Ni+2] [Ni^2+]	–	did not inhibit	–	–
CC(=O)[O][Hg][c]1ccccc1 [Phenylmercuric acetate]	competitive	–	700 ± 300 nM	effect on detection of the viral spike protein (SARS‐CoV [2]): suppressed detection of the viral spike protein
C[CH2][Hg][S]c1ccccc1C(=O)[O-].[Na+] [Thimerosal]	competitive	–	2400 ± 200 nM	decrease of the detectable quantity of the spike protein (SARS‐CoV [2]): over 90%
[Zn+2] [Zn^2+]	non‐competitively; also recorded: non‐competitive	effective	1100 ± 400 nM	fold larger K i versus 1‐hydroxypyridine‐2‐thione zinc (SARS‐CoV 3CL protease): 6 fold
O=C(Nc1ccc([N+](=O)[O-])cc1Cl)c1cc(Cl)ccc1O [niclosamide, Niclosamide]	–	not indicative of any inhibitory effect	–	–
